Measured values published in patent US20250236616A1, “IMMUNOMODULATING AZALIDES” (Zoetis Services LLC, priority 2021, published 2025).

How the values were obtained:
[1] = test system: H. somni; assay: MIC, H. somni strains; type: cell-based; details: H. somni strains
Description: Primary screening of the compounds of the invention included the evaluation of antibacterial activity of analogs through determination of microbial inhibition concentration (MIC) as per CLSI guidelines. The screening panel included the relevant BRD pathogens: 1) M. haemolytica (e.g., 12726, 46571 and 49023, all AHDRCC; and 33396 (ATCC)); and 2) P. multocida (e.g., 34135 and 46572 (both AHDRCC) and 43137 (ATCC)). In some instances, H. somni (A700025K) pathogens were also included in the screening panel. The AHDRCC strains originated from the Zoetis BRD/SRD surveillance program and refer to the Animal Health Development and Research Culture Collection. In addition, the screen assessed S. aureus (29213 ATCC) as a representative Gram-positive isolate, E.faecalis (19433 ATCC) as a commensal gram-positive gastrointestinal bacterium and E. coli (100, 3110 and 25922 (ATCC)) for the evaluation of efflux potential. The screening panel BRD pathogens were assessed in determining antibacterial activity of the Formula (1) compounds.
All relevant BRD pathogens were initially screened at a top concentration of 64 μg/mL of a Formula (1) compound in an eleven-point dilution series. […] If an Example was purified further, the MICs moved […] essentially two dilutions across all strains tested in the screening panel.
In-Vitro MIC Model Compounds were analyzed for antibacterial activity against a panel of animal health specific gram-positive and gram-negative clinical strains by diluting compounds in DMSO to an appropriate stock concentration to determine the Minimal Inhibitory Concentration (MIC) via a semi-automated broth micro-dilution method (CLSI reference method) with QC strains and anti-microbial agent(s). Specifically, bacteria were grown overnight on TSA w/5% sheep blood agar plates and diluted in saline buffer to a McFarland Standard 0.5, then further diluted in cation-ion adjusted Mueller Hinton Broth to a final concentration of approximately 5×10^5 CFU/mL. 100 μL of inoculated media was added to 96-well plate(s) with 3 μL of serially diluted compound in each row. Depending on strain (see CLSI reference method), bacteria were incubated 18-22 hours at 35-37° C. in ambient air, with 5% CO2 or anaerobically (up to 48 hours).

[2] = test system: TNF-α; assay: Whole bovine blood assay, LPS-induced TNF-α; type: cell-based; details: Bos taurus, fresh whole bovine blood, LPS stimulant; top drug concentration 250 μM
In short: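 Fresh heparinized bovine whole blood was preincubated with compound 4 h at 37 °C, then stimulated with LPS (final 1 μg/mL) for 18 h at 37 °C. Plasma TNF-α was quantified by MSD U-Plex chemiluminescent immunoassay, normalized to total protein (BCA), and IC50 taken for LPS-induced TNF-α inhibition.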

[3] = test system: IL-1β; assay: Whole bovine blood assay, LPS-induced IL-1β (inhibition / overstimulation); type: cell-based; details: Bos taurus, 18 h, drug concentration giving overstimulation (OS) of LPS-induced IL-1β, top concentration 250 μM
In short: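 Fresh heparinized bovine whole blood was preincubated with compound at varying concentrations for 4 h at 37 °C, then stimulated with 1 μg/mL LPS for 18 h. Plasma IL-1β was measured by MSD chemiluminescent immunoassay and normalized to total protein. Values cover inhibition and concentration-dependent overstimulation.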

[4] = test system: P. multocida 46572; assay: In vivo mouse lung infection challenge model (murine efficacy), survival; parameters: species or system CD-1 female mice; details: P. multocida 46572 intranasal challenge; 20 mg/kg subcutaneous; harmonized relative to vehicle (−) and M9 (+) controls
Description: The challenge organism was P. multocida 46572. Target challenge concentration was 5×10^2 CFU/mouse. Isolated colonies from overnight growth (37° C. with 5% CO2) on trypticase soy agar (TSA II) blood plates were transferred to room temperature Brain Heart Infusion Broth (BHIB). The broth culture was incubated 3.5-4 hours to approximately mid-log phase of growth, as measured by forward light scatter at 600 nm (OD600, 0.200). The culture was centrifuged to collect the bacterial pellet. The pellet was re-suspended in BHIB and adjusted to provide an approximate concentration of 2.7 log 10 colony forming units (CFU) in 0.04 mL at the highest concentration. The challenge inoculum concentration was confirmed by serial dilutions of the inoculum for CFU enumeration. On Day −5, CD −1 female mice were received. Mice were given standard rodent diet and water ad libitum. On Day 0, bacterial inoculum (0.04 mL) was administered to each mouse (n=36) intranasally. Compounds of the invention were dosed at 20 mg/kg (0.1 mL) in a buffered (˜pH 5.4) propylene glycol, monothioglycerol and water solution by subcutaneous injection. Animals were observed from Days 1-10. The study was terminated on Day 10. In addition, some treatment groups were sampled at 6, 24, and 48 hours post bacterial challenge for RNA sequence analysis of lung tissue.
The murine efficacy model (P.multocida challenge) was optimized, and the treatment group size was powered to be able to observe statistically significant improvement of survival to expected ranges for immunomodulatory compounds. The experimental design was a randomized complete block design. Mice were individually identified and treatment groups comingled within a cage, with every treatment group equally represented across cages. Mortality was the primary variable. Mortality data was analyzed using a generalized mixed model with fixed effect of treatment and random effect of block. Survival time was also analyzed using the SAS PHREG (survival analysis) procedure to examine whether there were significant differences between treatment groups and the control group. Numerous compounds of the invention and M9 (positive control) were tested in this model at a dose of 20 mg/kg (Table 3). Typical percent survival for no treatment control is in the range of 0-20% based on study to study variation in challenge inoculum and rate of infection. […] Mouse survival for M9 was about 90-100%, further supporting its residual antibacterial properties against the bacterial strain.

[5] = test system: IL-6; assay: Whole bovine blood assay, LPS-induced IL-6; type: cell-based; details: Bos taurus, fresh whole bovine blood, LPS stimulant; top drug concentration 250 μM
[6] = test system: P. multocida; assay: Murine P. multocida intranasal challenge study, treatment 18 hours after challenge, survival; type: in vivo, mice; details: subcutaneous 18 hours after challenge (5×10^3 CFU/mouse); tulathromycin 16 mg/kg, M9 32 mg/kg, ceftiofur 9 mg/kg
Description: In one murine P. multocida intranasal challenge study, mice were administered tulathromycin (16 mg/kg; T02), M9 (32 mg/kg; T03), or ceftiofur (9 mg/kg; T04) by subcutaneous injection 18 hours after bacterial challenge (5×10^3 CFU/mouse) for lung tissue RNA sequence analysis. Survival at Day 7 was about 80%, 50%, and 90% for T02, T03, and T04, respectively, compared to placebo at 0%. Differential gene expression from total lung tissue RNA sequence analysis indicated at least 226 unique genes were up or down regulated (with significance) for T03. Output from ingenuity pathway analysis of these unique genes predicted major upstream regulators of the involved pathways. Data was analyzed based on the number of genes being modulated in the same direction that were associated with a given upstream regulator. An activation z-score of 2 or greater is considered significant and the direction change is indicated by + (activated) or -(inhibited). The top 5 pathways included: IL-9 signaling, glucocorticoid receptor signaling, prolactin signaling, JAK STAT signaling, and IL-17 signaling. The top 6 upstream regulators (activation z-score) included: lipopolysaccharide (−6.725), TNF (−4.669), IFNγ (−5.759), IL-1β (−5.947), STAT1 (−2.787), and poly rl: rC-RNA (−5.289). Even though this study was run in the murine model, the top upstream regulators identified as being modulated by M9 include an almost ubiquitous overlap with the pathways identified in the natural disease study as being key mediators in BRD, and therefore is modulating highly relevant pathways in BRD pathobiology.

How did the “MIC values, range” value [1] turn out when `CCN1CCN(c2cc3c(cc2F)c(=O)c(C(=O)O)cn3C2CC2)CC1` [enrofloxacin] was run?
Its value is less than 0.06 to 1 µg/mL.

`CCCNC[C@]1(O)[C@H](C)O[C@@H](O[C@H]2[C@H](C)[C@@H](O[C@@H]3O[C@H](C)C[C@H](N(C)S(=O)(=O)N(C)C4CCCCC4)[C@H]3O)[C@](C)(O)C[C@@H](C)CN[C@H](C)[C@@H](O)[C@](C)(O)[C@@H](CC)OC(=O)[C@@H]2C)C[C@@]1(C)OC` [Example B-49, (2R,3S,4R,5R,8R,10R,11R,12S,13S,14R)-11-[(2S,3R,4S,6R)-4-[[cyclohexyl(methyl)sulfamoyl]-methylamino]-3-hydroxy-6-methyloxan-2-yl]oxy-2-ethyl-3,4,10-trihydroxy-13-[(2R,4R,5S,6S)-5-hydroxy-4-methoxy-4,6-dimethyl-5-(propylaminomethyl)oxan-2-yl]oxy-3,5,8,10,12,14-hexamethyl-1-oxa-6 azacyclopentadecan-15-one] was tested. Which IC50 [2] did it give?
The IC50 was 37 µM.

And the minimal effective concentration [3]?
Its minimal effective concentration is 6 µM.

What about the “% Survival” value [4] of the same molecule?
The value was 53%.

And the IC50 [5]?
Its IC50 is 16 µM.

How did the IC50 [2] turn out when `CC[C@H]1OC(=O)[C@H](C)[C@@H](O[C@H]2C[C@@](C)(OC)[C@](O)(CNCCCN3CCCCC3)[C@H](C)O2)[C@H](C)[C@@H](O[C@@H]2O[C@H](C)C[C@H](N(C)S(=O)(=O)c3ccc(Cl)cc3)[C@H]2O)[C@](C)(O)C[C@@H](C)CN[C@H](C)[C@@H](O)[C@]1(C)O` [Example B-58, 4-chloro-N-((2S,3R,4S,6R)-2-(((2R,3S,4R,5R,8R,10R,11R,12S,13S, 14R)-2-ethyl-3,4,10-trihydroxy-13-(((2R,4R,5S,6S)-5-hydroxy-4-methoxy-4,6-dimethyl-5-(((3-(piperidin-1-yl)propyl)amino)methyl)tetrahydro-2H-pyran-2-yl)oxy)-3,5,8,10,12,14-hexamethyl-15-oxo-1-oxa-6-azacyclopentadecan-11-yl)oxy)-3-hydroxy-6-methyltetrahydro-2H-pyran-4-yl)-N-methylbenzenesulfonamide] was run?
The IC50 was 29 µM.

And the minimal effective concentration [3]?
The minimal effective concentration was 40 µM.

What about the “% Survival” value [4] of the same molecule?
The value was 32%.

And the IC50 [5]?
Its IC50 is 75 µM.

Which “Survival at Day 7” value [6] does the source give for `CO/N=C(\C(=O)N[C@@H]1C(=O)N2C(C(=O)O)=C(CSC(=O)c3ccco3)CS[C@H]12)c1csc(N)n1` [ceftiofur] here?
Its value is roughly 90%.

`CCCNC[C@]1(O)[C@H](C)O[C@@H](O[C@H]2[C@H](C)[C@@H](O[C@@H]3O[C@H](C)C[C@H](N(Cc4ccc(OC)cc4)S(=O)(=O)c4ccccc4)[C@H]3O)[C@](C)(O)C[C@@H](C)CN[C@H](C)[C@@H](O)[C@](C)(O)[C@@H](CC)OC(=O)[C@@H]2C)C[C@@]1(C)OC` [Example B-148, N-((2S,3R,4S,6R)-2-(((2R,3S,4R,5R,8R,10R,11R,12S,13S,14R)-2-ethyl-3,4,10-trihydroxy-13-(((2R,4R,5S,6S)-5-hydroxy-4-methoxy-4,6-dimethyl-5-((propylamino)methyl)tetrahydro-2H-pyran-2-yl)oxy)-3,5,8,10, 12, 14-hexamethyl-15-oxo-1-oxa-6-azacyclopentadecan-11-yl)oxy)-3-hydroxy-6-methyltetrahydro-2H-pyran-4-yl)-N-(4-methoxybenzyl)benzenesulfonamide] was tested. Which IC50 [2] did it give?
Its IC50 is 2 µM.

And the minimal effective concentration [3]?
Its minimal effective concentration is 2 µM.

What about the “% Survival” value [4] of the same molecule?
The value was 68%.

And the IC50 [5]?
The IC50 was 4 µM.

`CCCNC[C@]1(O)[C@H](C)OC(O[C@H]2[C@H](C)[C@@H](O[C@@H]3O[C@H](C)C[C@H](N(C)S(=O)(=O)c4nccn4C)[C@H]3Oc3ccc(F)cc3)[C@](C)(O)C[C@@H](C)CN[C@H](C)[C@@H](O)[C@](C)(O)[C@@H](CC)OC(=O)[C@@H]2C)C[C@@]1(C)OC` (stereo partly drawn) [Example B-107, N-[(2S,3R,4S,6R)-2-[[(2R,3S,4R,5R,8R,10R,11R,12S,13S, 14R)-2-ethyl-3,4,10-trihydroxy-13-[(4R,5S,6S)-5-hydroxy-4-methoxy-4,6-dimethyl-5-(propylaminomethyl)oxan-2-yl]oxy-3,5,8, 10, 12, 14-hexamethyl-15-oxo-1-oxa-6-azacyclopentadec-11-yl]oxy]-3-(4-fluorophenoxy)-6-methyloxan-4-yl]-N, 1-dimethylimidazole-2-sulfonamide] was tested. Which IC50 [2] did it give?
Its IC50 is 22 µM.

And the minimal effective concentration [3]?
Its minimal effective concentration is 2 µM.

What about the “% Survival” value [4] of the same molecule?
Its value is 82%.

And the IC50 [5]?
The IC50 was 9 µM.

With `CS(=O)(=O)c1ccc([C@@H](O)[C@@H](CF)NC(=O)C(Cl)Cl)cc1` [florfenicol] as the molecule, how does the “MIC values, range” value [1] read?
The value was 0.12 to 2 µg/mL.
